The subject of experiment [1] is Buchnera. Nature of the experiment: qPCR of Buchnera/aphid DNA copy numbers (symbiont titer). It counts as in vivo, Buchnera aphidicola. As to conditions: 10 or 100 uM pantothenol, through plants; 8 days. As for the experimental part: After 7 days of treatment, DNA was extracted from multiple aphids from each treatment group. Briefly, the aphid body surface was sterilized by dipping the aphid into a 6% bleach solution for approximately 5 seconds. Aphids were then rinsed in sterile water and DNA was extracted from each individual aphid using a DNA extraction kit (Qiagen, DNeasy kit) according to manufacturer's instructions. DNA concentration was measured using a nanodrop nucleic acid quantification, and Buchnera and aphid DNA copy numbers were measured by qPCR.
After 6 days of treatment, DNA was extracted from multiple aphids from each treatment group and qPCR for quantifying Buchnera levels was done as described in the previous Example.
After 8 days of treatment, DNA was extracted from multiple aphids from each treatment group. Briefly, the aphid body surface was sterilized by dipping the aphid into a 6% bleach solution for approximately 5 seconds. Aphids were then rinsed in sterile water and DNA was extracted from each individual aphid using a DNA extraction kit (Qiagen, DNeasy kit) according to manufacturer's instructions. DNA concentration was measured using a nanodrop nucleic acid quantification, and Buchnera and aphid DNA copy numbers were measured by qPCR.
After 8 days of treatment, DNA was extracted from the remaining aphids in each treatment group. Briefly, the aphid body surface was sterilized by dipping the aphid into a 6% bleach solution for approximately 5 seconds. Aphids were then rinsed in sterile water and DNA was extracted from each individual aphid using a DNA extraction kit (Qiagen, DNeasy kit) according to manufacturer's instructions. DNA concentration was measured using a nanodrop nucleic acid quantification, and Buchnera and aphid DNA copy numbers were measured by qPCR.
(§1) Briefly, the aphid body surface was sterilized by dipping the aphid into a 6% bleach solution for approximately 5 seconds. Aphids were then rinsed in sterile water and DNA was extracted from each individual aphid using a DNA extraction kit (Qiagen, DNeasy kit) according to manufacturer's instructions. DNA concentration was measured using a nanodrop nucleic acid quantification, and Buchnera and aphid DNA copy numbers were measured by qPCR.
as §1
After 3 days of treatment, DNA was extracted from the remaining living aphids from each treatment group. Briefly, the aphid body surface was sterilized by dipping the aphid into a 6% bleach solution for approximately 5 seconds. Aphids were then rinsed in sterile water and DNA was extracted from each individual aphid using a DNA extraction kit (Qiagen, DNeasy kit) according to manufacturer's instructions. DNA concentration was measured using a nanodrop nucleic acid quantification, and Buchnera and aphid DNA copy numbers were measured by qPCR.
After 5 days of treatment, DNA was extracted from the remaining aphids in each treatment group. Briefly, the aphid body surface was sterilized by dipping the aphid into a 6% bleach solution for approximately 5 seconds. Aphids were then rinsed in sterile water and DNA was extracted from each individual aphid using a DNA extraction kit (Qiagen, DNeasy kit) according to manufacturer's instructions. DNA concentration was measured using a nanodrop nucleic acid quantification, and Buchnera and aphid DNA copy numbers were measured by qPCR.
At 5 days post-treatment, DNA was extracted from several aphids in each treatment group. Briefly, the aphid body surface was sterilized by dipping the aphid into a 6% bleach solution for approximately 5 seconds.

Experiment [2] concerns Acyrthosiphon pisum aphids. The experiment is described as follows: Aphid survival monitoring. It counts as in vivo. An excerpt: For each treatment, 33 aphids were placed onto each leaf. Artificial diet feeding systems were changed every 2-3 days throughout the experiment. Aphids were monitored daily for survival and dead aphids were removed from the deep petri dish housing the artificial feeding system when they were discovered.
Each treatment group received approximately the same number of individuals from each of the collection plant. For each treatment, 20 aphids were placed onto each leaf. Aphids were monitored daily for survival and dead aphids were removed when they were discovered. In addition, the developmental stage (1st, 2nd, 3rd, 4th, 5th instar, and 5R, representing a reproducing 5th instar) was determined daily throughout the experiment. Pictures of aphids were taken throughout the experiment to evaluate size differences between treatment groups.
(Vroma vicia faba from Johnny's Selected Seeds) in a climate-controlled incubator (16 h light/8 h dark photoperiod; 60±5% RH; 25±2° C.). Prior to being used for aphid rearing, fava bean plants were grown in potting soil at 24° C. with 16 h of light and 8 h of darkness. To limit maternal effects or health differences between plants, 5-10 adults from different plants were distributed among 10 two-week-old plants, and allowed to multiply to high density for 5-7 days. For experiments, first and second instar aphids were collected from healthy plants and divided into 2 different treatment groups: 1) negative control (leaf injected with water plus blue food coloring) and 2) leaf injected with 50 μg/ml rifampicin in water plus blue food coloring. Each treatment group received approximately the same number of individuals from each of the collection plants. For treatment, rifampicin stock solution (25 mg/ml in 100% methanol) was diluted to 50 μg/ml in water plus blue food coloring. The solution was then placed into a 1.5 ml Eppendorf tube with a fava bean stem perfused with the solutions and the opening of the tube was closed using parafilm. This feeding system was then placed into a deep petri dish (Fisher Scientific, Cat# FB0875711) and aphids were applied to the leaves of the plant. For each treatment, 74-81 aphids were placed onto each leaf. The feeding systems were changed every 2-3 days throughout the experiment. Aphids were monitored daily for survival and dead aphids were removed from the deep petri dish when they were discovered. In addition, the developmental stage (1st, 2nd, 3rd, 4th, 5th and 5R (5th that has reproduced) instar) was determined daily throughout the experiment.
For each treatment, 49-50 aphids were placed onto each leaf. The feeding systems were changed every 2-3 days throughout the experiment. Aphids were monitored daily for survival and dead aphids were removed from the deep petri dish when they were discovered.
For each treatment, 76-80 aphids were placed onto each leaf. The feeding systems were changed every 2-3 days throughout the experiment. Aphids were monitored daily for survival and dead aphids were removed from the deep petri dish when they were discovered.
For each treatment, 50-51 aphids were placed onto each leaf. The feeding systems were changed every 2-3 days throughout the experiment. Aphids were monitored daily for survival and dead aphids were removed from the deep petri dish when they were discovered.
For each treatment, 56-59 aphids were placed onto each leaf. The feeding systems were changed every 2-3 days throughout the experiment. Aphids were monitored daily for survival and dead aphids were removed from the deep petri dish when they were discovered.
For each treatment, 57-59 aphids were placed onto each leaf. The feeding systems were changed every 2-3 days throughout the experiment. Aphids were monitored daily for survival and dead aphids were removed from the deep petri dish when they were discovered.
For each treatment, 15-87 aphids were placed onto each leaf. Artificial diet feeding systems were changed every 2-3 days throughout the experiment.

Entries after “also recorded” stand apart in the source; their conditions may differ.

With `CC(C)(CO)[C@@H](O)C(=O)NCCCO` [pantothenol], the “Buchnera/aphid DNA copies” value in experiment [1] is on record as “did not affect endosymbiotic Buchnera; also recorded: high ratios of Buchnera/aphid DNA copies”. In addition, the “Aphid survival / mortality” value in experiment [2] (10 or 100 uM pantothenol, through plants) is given as “increased aphid mortality; also recorded: negatively affected aphid fitness”. Further, in experiment [2] (leaf coating, 10 uM pantothenol), the Aphid survival rate result is “resulted in aphid death; also recorded: lower survival rates than aphids placed on coated leaves with the control solution”.
